Values belong to the compound of their own block, whether it stands above or below them.
Assays:
[1] = system: Formosan subterranean termites; settings: other tested naturally occurring compounds; cited from earlier work
termites = assay: Naphthalene-related compounds, choice of treated or untreated food or sand; assay type: in vivo; settings: no repellency up to this concentration; data not shown
Procedure: When termites were given a choice of treated or untreated food or sand, all four chemicals were repellents at concentrations of 40 μg/cm^2 treated filter paper or 100 mg/kg treated sand. […] Methoxynaphthalenes were more volatile than acetonaphthones and could spread more effectively into the untreated chambers. […] (Data not shown)

[2] = Longevity and volatility of the eleven chemicals; assay type: physicochemical; settings: among the eleven chemicals tested

SMILES: C/C=C(\C)C(=O)O[C@H]1C[C@@H](OC(C)=O)[C@@]2(C(=O)OC)CO[C@H]3[C@@H](O)[C@@](C)([C@]45O[C@@]4(C)[C@H]4C[C@@H]5O[C@@H]5OC=C[C@@]54O)[C@H]4[C@]1(CO[C@]4(O)C(=O)OC)[C@@H]32 [azadirachtin]
concentration inhibiting tunneling and feeding behaviors [1]: 500 mg/kg

SMILES: C=C(C)[C@@H]1CCC2=CC(=O)C[C@@H](C)[C@]2(C)C1 [nootkatone]
concentration inhibiting tunneling and feeding behaviors [1]: 100 mg/kg

SMILES: c1ccc2ccccc2c1 [Napthalene, naphthalene]
concentration showing repellency (termites): > 500 μg/cm^2

longevity [2]: highest longevity
volatility [2]: lowest volatility
SMILES: CC(=O)c1cccc2ccccc12 [1′-acetonaphthone]
